Test results from patent US12404304B1, “Telomerase reverse transcriptase (TERT) expression enhancing compounds and methods for using the same” (Sierra Sciences, LLC, priority 2007, dated 2025).

System: viable cells in culture
Assay: Cell viability assay (CellTiter-Glo Luminescent Cell Viability Assay, ATP quantitation, percent of vehicle control)

First: CCC(=O)NC(c1ccc(N(C)C)cc1)c1ccc2cccnc2c1O (stereo not shown) [compound 1001]
Second: CCN(CC)c1ccc(C(NC(=O)C(C)C)c2ccc3cccnc3c2O)cc1 (stereo not shown) [compound 1060]
The “Average Cell Viability after 24 Hours (% DMSO)” value of the first is lower: 44.55 % DMSO for the first, 63.44 % DMSO for the second.

Going from `Oc1c(CN2CCN(c3cccc(Cl)c3)CC2)cc(Br)c2cccnc12` [compound 1002] to `O=[N+]([O-])c1cc(CN2CCN(c3ccccc3)CC2)c(O)c2ncccc12` [compound 1029], the “Average Cell Viability after 24 Hours (% DMSO)” value falls from 57.70 % DMSO to 32.00 % DMSO.

First: CN1CCN(Cc2cc(COCc3ccccc3)c3cccnc3c2O)CC1 [compound 1003]
Second: CC(=O)NC(c1ccccc1)c1cc([N+](=O)[O-])c2cccnc2c1O (stereo not shown) [compound 1050]
The “Average Cell Viability after 24 Hours (% DMSO)” value of the first is higher: 73.53 % DMSO for the first, 62.77 % DMSO for the second.

First: Oc1c(C(Nc2ccccn2)c2ccc(OC3CCCC3)cc2)ccc2cccnc12 (stereo not shown) [compound 1004]
Second: Oc1c(C(Nc2ccccn2)c2ccccc2Br)ccc2cccnc12 (stereo not shown) [compound 1007]
The “Average Cell Viability after 24 Hours (% DMSO)” value of the first is lower: 54.71 % DMSO for the first, 68.00 % DMSO for the second.

Going from `COc1cc(C(Nc2ccccn2)c2ccc3cccnc3c2O)cc(Br)c1OC` (stereo not shown) [compound 1005] to `Oc1c(C(Nc2ccccn2)c2cccc(Cl)c2Cl)ccc2cccnc12` (stereo not shown) [compound 1006], the “Average Cell Viability after 24 Hours (% DMSO)” value rises from 64.80 % DMSO to 69.78 % DMSO.

First: COC(=O)c1ccc(C(Nc2cc(C)ccn2)c2ccc3ccc(C)nc3c2O)cc1 (stereo not shown) [compound 1008]
Second: Cc1ccc2ccc(C(Nc3ccccn3)c3cccc([N+](=O)[O-])c3)c(O)c2n1 (stereo not shown) [compound 1078]
The “Average Cell Viability after 24 Hours (% DMSO)” value of the first is lower: 67.58 % DMSO for the first, 67.66 % DMSO for the second.

Compared with `Oc1c(C(Nc2ccccn2)c2c(Cl)cccc2Cl)ccc2cccnc12` (stereo not shown) [compound 1009], `CC(=O)NC(c1ccccc1Cl)c1ccc2cccnc2c1O` (stereo not shown) [compound 1025] is higher in “Average Cell Viability after 24 Hours (% DMSO)” value: 68.59 % DMSO for the first, 93.50 % DMSO for the second.

Going from `CCN(CC)c1ccc(C(NC(=O)C(C)C)c2cc(Cl)c3cccnc3c2O)cc1` (stereo not shown) [compound 1011] to `CCCC(=O)NC(c1ccc(N(CC)CC)cc1)c1cc(Cl)c2cccnc2c1O` (stereo not shown) [compound 1070], the “Average Cell Viability after 24 Hours (% DMSO)” value rises from 64.50 % DMSO to 69.71 % DMSO.

Compared with `COc1ccc(C(=O)NC(c2ccco2)c2cc(Cl)c3cccnc3c2O)cc1` (stereo not shown) [compound 1012], `COc1ccc(C(=O)NC(c2ccc(Cl)cc2)c2cc(Cl)c3cccnc3c2O)cc1` (stereo not shown) [compound 1014] is lower in “Average Cell Viability after 24 Hours (% DMSO)” value: 60.73 % DMSO for the first, 28.33 % DMSO for the second.

Compared with `COc1cccc(C(=O)NC(c2ccc(OC)c(OC)c2)c2cc(Cl)c3cccnc3c2O)c1` (stereo not shown) [compound 1013], `CCC(=O)NC(c1ccc(OC)c(OC)c1)c1cc(Cl)c2cccnc2c1O` (stereo not shown) [compound 1032] is higher in “Average Cell Viability after 24 Hours (% DMSO)” value: 74.96 % DMSO for the first, 75.67 % DMSO for the second.

Going from `O=C(COc1ccccc1)NC(/C=C/c1ccccc1)c1cc(Cl)c2cccnc2c1O` (stereo not shown) [compound 1015] to `COc1cccc(C(=O)NC(/C=C/c2ccccc2)c2cc(Cl)c3cccnc3c2O)c1` (stereo not shown) [compound 1017], the “Average Cell Viability after 24 Hours (% DMSO)” value rises from 74.68 % DMSO to 75.48 % DMSO.

Compared with `COc1ccc(C(=O)NC(/C=C/c2ccccc2)c2cc(Cl)c3cccnc3c2O)cc1` (stereo not shown) [compound 1016], `CCC(=O)NC(/C=C/c1ccccc1)c1cc([N+](=O)[O-])c2cccnc2c1O` (stereo not shown) [compound 1035] is higher in “Average Cell Viability after 24 Hours (% DMSO)” value: 42.84 % DMSO for the first, 62.45 % DMSO for the second.

Going from `Oc1c(I)cc(I)c2cccnc12` [compound 1018] to `Oc1c(Br)cc(Br)c2cccnc12` [compound 1019], the “Average Cell Viability after 24 Hours (% DMSO)” value falls from 56.90 % DMSO to 35.74 % DMSO.

Going from `Oc1c(Cl)cc(Cl)c2cccnc12` [compound 1020] to `CCC(=O)NC(c1ccccc1Cl)c1cc(Cl)c2cccnc2c1O` (stereo not shown) [compound 1041], the “Average Cell Viability after 24 Hours (% DMSO)” value rises from 25.10 % DMSO to 72.82 % DMSO.

First: CC(=O)NC(c1ccc(Br)cc1)c1ccc2cccnc2c1O (stereo not shown) [compound 1022]
Second: CC(=O)NC(c1ccc(C)cc1)c1ccc2cccnc2c1O (stereo not shown) [compound 1024]
The “Average Cell Viability after 24 Hours (% DMSO)” value of the first is lower: 63.83 % DMSO for the first, 95.15 % DMSO for the second.

First: COc1ccc(C(NC(C)=O)c2ccc3cccnc3c2O)cc1OC (stereo not shown) [compound 1023]
Second: CC(=O)NC(c1ccc(C(C)C)cc1)c1ccc2cccnc2c1O (stereo not shown) [compound 1030]
The “Average Cell Viability after 24 Hours (% DMSO)” value of the first is higher: 75.33 % DMSO for the first, 73.78 % DMSO for the second.

First: CCCCC(=O)NC(c1ccccc1OC)c1cc([N+](=O)[O-])c2cccnc2c1O (stereo not shown) [compound 1027]
Second: CCC(=O)NC(c1ccccc1OC)c1cc([N+](=O)[O-])c2cccnc2c1O (stereo not shown) [compound 1051]
The “Average Cell Viability after 24 Hours (% DMSO)” value of the first is lower: 62.71 % DMSO for the first, 65.27 % DMSO for the second.

Compared with `CCCCC(=O)NC(c1ccccc1Cl)c1cc([N+](=O)[O-])c2cccnc2c1O` (stereo not shown) [compound 1031], `CCC(=O)NC(c1ccccc1Cl)c1cc([N+](=O)[O-])c2cccnc2c1O` (stereo not shown) [compound 1074] is lower in “Average Cell Viability after 24 Hours (% DMSO)” value: 76.88 % DMSO for the first, 75.55 % DMSO for the second.

Going from `CCOc1cc(C(NC(C)=O)c2cc([N+](=O)[O-])c3cccnc3c2O)ccc1O` (stereo not shown) [compound 1033] to `CCCC(=O)NC(c1ccc(O)c(OCC)c1)c1cc([N+](=O)[O-])c2cccnc2c1O` (stereo not shown) [compound 1036], the “Average Cell Viability after 24 Hours (% DMSO)” value falls from 84.43 % DMSO to 73.28 % DMSO.

First: CC(=O)NC(c1ccco1)c1cc([N+](=O)[O-])c2cccnc2c1O (stereo not shown) [compound 1034]
Second: CCCCC(=O)NC(c1ccco1)c1cc([N+](=O)[O-])c2cccnc2c1O (stereo not shown) [compound 1055]
The “Average Cell Viability after 24 Hours (% DMSO)” value of the first is higher: 83.39 % DMSO for the first, 57.43 % DMSO for the second.

First: CC(=O)NC(c1ccc(Cl)cc1)c1cc([N+](=O)[O-])c2cccnc2c1O (stereo not shown) [compound 1037]
Second: CCCC(=O)NC(c1ccc(Cl)cc1)c1cc([N+](=O)[O-])c2cccnc2c1O (stereo not shown) [compound 1044]
The “Average Cell Viability after 24 Hours (% DMSO)” value of the first is lower: 67.96 % DMSO for the first, 85.35 % DMSO for the second.

Compared with `CCC(=O)NC(c1ccco1)c1cc(Cl)c2cccnc2c1O` (stereo not shown) [compound 1039], `CCCC(=O)NC(c1ccco1)c1cc(Cl)c2cccnc2c1O` (stereo not shown) [compound 1077] is lower in “Average Cell Viability after 24 Hours (% DMSO)” value: 72.76 % DMSO for the first, 38.99 % DMSO for the second.

Compared with `CCCCC(=O)NC(c1ccc(OC)cc1)c1cc([N+](=O)[O-])c2cccnc2c1O` (stereo not shown) [compound 1040], `CCCCC(=O)NC(c1ccc(Cl)cc1)c1cc([N+](=O)[O-])c2cccnc2c1O` (stereo not shown) [compound 1054] is lower in “Average Cell Viability after 24 Hours (% DMSO)” value: 61.11 % DMSO for the first, 46.45 % DMSO for the second.

Compared with `CC(C)C(=O)NC(c1ccc(Cl)cc1Cl)c1ccc2cccnc2c1O` (stereo not shown) [compound 1042], `CC(C)C(=O)NC(c1ccc(C(C)C)cc1)c1cc(Cl)c2cccnc2c1O` (stereo not shown) [compound 1062] is higher in “Average Cell Viability after 24 Hours (% DMSO)” value: 55.51 % DMSO for the first, 60.77 % DMSO for the second.

Going from `CCC(=O)NC(c1ccccc1OC)c1cc(Cl)c2cccnc2c1O` (stereo not shown) [compound 1043] to `CCCCC(=O)NC(c1ccc(OC)cc1)c1cc(Cl)c2cccnc2c1O` (stereo not shown) [compound 1061], the “Average Cell Viability after 24 Hours (% DMSO)” value rises from 47.47 % DMSO to 62.27 % DMSO.

First: O=C(NC(c1ccc(Cl)cc1)c1ccc2cccnc2c1O)C1CCCCC1 (stereo not shown) [compound 1045]
Second: Cc1ccc(C(NC(=O)C2CCCCC2)c2ccc3cccnc3c2O)cc1 (stereo not shown) [compound 1047]
The “Average Cell Viability after 24 Hours (% DMSO)” value of the first is lower: 60.30 % DMSO for the first, 69.78 % DMSO for the second.

Compared with `CCCCC(=O)NC(c1ccc2c(c1)OCO2)c1cc([N+](=O)[O-])c2cccnc2c1O` (stereo not shown) [compound 1046], `CC(C)C(=O)NC(c1ccc2c(c1)OCO2)c1cc([N+](=O)[O-])c2cccnc2c1O` (stereo not shown) [compound 1064] is lower in “Average Cell Viability after 24 Hours (% DMSO)” value: 78.00 % DMSO for the first, 67.37 % DMSO for the second.

Compared with `CCCC(=O)NC(c1cccs1)c1cc([N+](=O)[O-])c2cccnc2c1O` (stereo not shown) [compound 1048], `CCCCC(=O)NC(c1cccs1)c1cc([N+](=O)[O-])c2cccnc2c1O` (stereo not shown) [compound 1063] is higher in “Average Cell Viability after 24 Hours (% DMSO)” value: 70.37 % DMSO for the first, 85.12 % DMSO for the second.

Compared with `CCC(=O)NC(c1ccc(C)cc1)c1cc([N+](=O)[O-])c2cccnc2c1O` (stereo not shown) [compound 1049], `CCCC(=O)NC(c1ccc(C(C)C)cc1)c1cc([N+](=O)[O-])c2cccnc2c1O` (stereo not shown) [compound 1056] is higher in “Average Cell Viability after 24 Hours (% DMSO)” value: 65.63 % DMSO for the first, 65.75 % DMSO for the second.

Compared with `CC(=O)NC(c1cccs1)c1cc(Cl)c2cccnc2c1O` (stereo not shown) [compound 1052], `CCCCC(=O)NC(c1cccs1)c1cc(Cl)c2cccnc2c1O` (stereo not shown) [compound 1067] is lower in “Average Cell Viability after 24 Hours (% DMSO)” value: 60.80 % DMSO for the first, 49.62 % DMSO for the second.

First: CCCCC(=O)NC(c1ccc(OC)c(OC)c1)c1cc([N+](=O)[O-])c2cccnc2c1O (stereo not shown) [compound 1053]
Second: COc1ccc(C(NC(=O)C2CCCCC2)c2cc([N+](=O)[O-])c3cccnc3c2O)cc1OC (stereo not shown) [compound 1072]
The “Average Cell Viability after 24 Hours (% DMSO)” value of the first is lower: 59.77 % DMSO for the first, 78.35 % DMSO for the second.

First: CC(=O)NC(c1ccc(C(C)C)cc1)c1cc(Cl)c2cccnc2c1O (stereo not shown) [compound 1057]
Second: CC(C)C(=O)NC(c1ccc(C(C)C)cc1)c1cc([N+](=O)[O-])c2cccnc2c1O (stereo not shown) [compound 1071]
The “Average Cell Viability after 24 Hours (% DMSO)” value of the first is lower: 50.02 % DMSO for the first, 81.62 % DMSO for the second.

First: CC(=O)NC(c1cccs1)c1ccc2cccnc2c1O (stereo not shown) [compound 1058]
Second: O=C(CCc1ccccc1)NC(c1ccc2c(c1)OCO2)c1ccc2cccnc2c1O (stereo not shown) [compound 1065]
The “Average Cell Viability after 24 Hours (% DMSO)” value of the first is higher: 69.11 % DMSO for the first, 61.72 % DMSO for the second.

First: CCCC(=O)NC(c1ccc(N(C)C)cc1)c1cc(Cl)c2cccnc2c1O (stereo not shown) [compound 1066]
Second: COc1ccc(C(NC(=O)C(C)C)c2cc([N+](=O)[O-])c3cccnc3c2O)cc1 (stereo not shown) [compound 1073]
The “Average Cell Viability after 24 Hours (% DMSO)” value of the first is lower: 72.46 % DMSO for the first, 80.10 % DMSO for the second.

Compared with `O=C(NC(c1ccc2c(c1)OCO2)c1cc([N+](=O)[O-])c2cccnc2c1O)C1CCCCC1` (stereo not shown) [compound 1068], `CCCCC(=O)NC(/C=C/c1ccccc1)c1cc([N+](=O)[O-])c2cccnc2c1O` (stereo not shown) [compound 1069] is higher in “Average Cell Viability after 24 Hours (% DMSO)” value: 61.20 % DMSO for the first, 80.34 % DMSO for the second.
